Experimental findings from patent US5536749A, “Method for attenuation of sympathetic nervous system activity or onset of migraine by selectively metabolized beta-blocking agents” (SL Pharmaceuticals, Inc., priority 1994, dated 1996) are described below.

In the assay the test system is isoproterenolinduced tachycardia. The assay can be described thus: beta-blocking action (potency, onset and duration) in anesthetized dogs after sublingual administration. In kind it is in vivo, dog. As to the method: The procedure described by J. E. Shaffer et al. in Drug Development Research 1, 221-232 (1986) was used to assess the potency, onset and duration of beta-blocking action of the compounds of Formula I in anesthetized dogs, except that compositions of Formula I were administered sublingually to the dog instead of by intravenous infusion. Using this method the results shown below were obtained with representative compounds A and B.
^1 Defined as the time from sublingual dosing to the first detectable
decrease in heart rate.
^2 Defined as the percent of reduction in isoproterenolinduced
^3 Defined as the times from sublingual dosing to the peak blockade o
isoproterenol observed. (Isoproterenol dose every ten minuets.)
^4 Defined as the time from peak blockade to the decay of blockade by […]

On to `COC(=O)CCc1ccccc1OCC(O)CNC(C)C` (stereo not drawn) [A], for which the “Peak Blockade (% Inhibition)” value is, setting by setting: (0.16 mpk (mg/kg), first line of Table 1, percent of reduction in isoproterenol-induced tachycardia) 35 ± 6%; (0.16 mpk (mg/kg), second line of Table 1, percent of reduction in isoproterenol-induced tachycardia) 39 ± 2%; (0.47 mpk (mg/kg), third line of Table 1, percent of reduction in isoproterenol-induced tachycardia) 65 ± 4%. Further, the “Beta-Blockade Onset” value is 1 to 2 min (0.16 mpk (mg/kg), first line of Table 1, time from dosing to first detectable decrease in heart rate); 3 to 4 min (0.16 mpk (mg/kg), second line of Table 1, time from dosing to first detectable decrease in heart rate); 2 to 3 min (0.47 mpk (mg/kg), third line of Table 1, time from dosing to first detectable decrease in heart rate). The “Time to Peak Blockade” value is 10 min (0.16 mpk (mg/kg), first line of Table 1, time from dosing to peak blockade of isoproterenol (dosed every ten minutes)); 10 min (0.16 mpk (mg/kg), second line of Table 1, time from dosing to peak blockade of isoproterenol (dosed every ten minutes)); 10 min (0.47 mpk (mg/kg), third line of Table 1, time from dosing to peak blockade of isoproterenol (dosed every ten minutes)). Also, the “Time to 50% Recovery from Blockade” value by setting is: (0.16 mpk (mg/kg), first line of Table 1, time from peak blockade to decay of blockade by 50% of the peak) 38 min; (0.16 mpk (mg/kg), second line of Table 1, time from peak blockade to decay of blockade by 50% of the peak) 43 min; (0.47 mpk (mg/kg), third line of Table 1, time from peak blockade to decay of blockade by 50% of the peak) 81 min.
